The text below walks through data of patent US20070037783A1, “Migrastatin analogs and uses thereof” (priority 2003, published 2007).

For data set [1] the following is noted: rcm bond, Grubbs-II, toluene, 111.0 °C, 0.25 h.
The test system of the next data set is HUVEC. Nature of the data set: Tube formation assay (preliminary, Table 1). The note with it: minimal concentration causing definite disturbance of tube network, 16-18 h, tested 200, 100, 50, 25, 10 μM. The format is cell-based, human. The method, then:
1. Tube Formation Assay (Table 1):
A protocol was designed based on the instructions from the provider (BD Bioscience, San Jose, Calif.). Briefly, wells of a 48 well culture dish were covert with 150 μL matrigel and the matrigel was gelatinized for 30 min at 37° C. A 80-90% confluent HUVEC (BD Bioscience, San Jose, Calif.) culture was trypsin treated, the detached cells were collected by centrifugation and resuspended in EGM-2 media (BD Bioscience, San Jose, Calif.). Cell concentration was adjusted to 100.000 cells/mL. 400 μL of the cell suspension were filled in the matrigel coated wells, and a solution of the inhibitor was added to the intended final concentration. The plates were incubated at 37° C. with 5% CO2 for 16-18 h. Media was removed, and the matrigel surface was washed twice with 500 μL PBS before cells were labeled with 250 μL 8 μM Calcein AM (Pierce, Rockford, Ill.) in PBS for 30 min at 37° C. After two additional washing steps (500 μL PBS) cells were visualized under an inverted microscope. Fluorescence was excited at 488 nm and recorded at 538 nm. The minimum effect concentration was defined as the minimal inhibitor concentration that caused a definite disturbance of the complexity of the formed tube network.

Data set [2] concerns adherent cells (e.g. KYSE-520 cells). Briefly: Wound healing (scratch) assay (preliminary, Table 2). To be noted: 28 to 30 h, compared to 100 μM Migrastatin, tested 200, 100, 50, 25, 10 μM. The format is cell-based. The method, then: 2. Wound Healing Assay (Table 2)
The wound healing assay was performed based on the method described by Nakae et al. (Nakae et al., J. Antibiotics (2000), 53, 1130-1136). Briefly, adherent cells were grown in a suitable media to confluence (e.g. KYSE-520 cells in RPMI-1640 with 10% FBS). Cells were starved for 24 h in serum free media. A scratch (ca. 0.5 mm) was applied and the cell layer was washed twice with PBS after removal of the media. Fresh, serum free media with the test compound at the desired concentration was added and the cells were incubated for 28 to 30 h at 37° C., 5% CO2. The scratch size was compared to that observed for cells exposed to 100 μM Migrastatin. Test compounds associated with a scratch size equal to or larger than that observed for cells exposed to 100 μM Migrastatin were deemed to have cell migration inhibitory activity at least equal to Migrastatin.

Data set [3] relates to 4T1 mouse breast tumor cells. Nature of the data set: Boyden chamber cell migration assay with 4T1 tumor cells. It is filed as cell-based. The note with it: for IC50: chamber cell migration, 6-8 h, average of three experiments, read-out: IC50 (4T1 tumor cells). The method, then:
The biological evaluation of the compounds (in terms of their ability to inhibit cell migration) was accomplished in a Boyden chamber cell migration assay. In this assay, mouse breast tumor cells (4T1 cells) or endothelial cells (HUVECs) are seeded on the upper chamber of a transwell insert. Growth factor-containing serum is added to the lower chamber.
Chamber Cell Migration Assay (Tables 4 and 6): Cell migrations were assayed with Boyden chambers [8.0 μm pore size, polyethylene terephthalate membrane, FALCON cell culture insert (Becton-Dickinson)]. 4T1 mouse breast tumor cells or HUVECs were trypsinized and counted. 300 μl of 5-10×10^4 cells in serum-free medium was added to the upper chamber and 500 μl of medium with 10% fetal bovine serum (FBS) was added to the lower chamber. […] Cells on the inside of the transwell inserts were removed with a cotton swab, and cells on the underside of the insert were fixed and stained. Photographs of three random regions were taken and the number of cells was counted to calculate the average number of cells that have transmigrated.

For data set [4], the system named is 4T1 tumor lung metastasis. Briefly: 4T1 tumor lung metastasis in syngeneic mice (6-thioguanine clonogenic assay). It is filed as in vivo, BALB/c mice. The note with it: for lung metastasis colonies: lungs Day 28, mean and standard deviation. From the text:
Inhibition of metastasis of mouse breast tumors by migrastatin alogs in mice. 4T1 mouse breast tumor cell line was isolated from a single spontaneously arising mammary tumor from a BALB/BfC3H mouse (MMTV+).^62 The 4T1 tumor closely mimics human breast cancer in its anatomical site, immunogenecity, growth characteristics, and metastatic properties.^63 From the mammary gland, 4T1 tumor spontaneously metastasizes to a variety of target organs including the lung, bone, brain, and liver through primarily a hematogenous rout.^64
To assess the efficacy of therapeutic application of migrastatin analogs in the 4T1 murine mammary carcinoma models, we administered migrastatin analogs (macroketone and macrolactam) to BALB/c mice carrying the 4T1 tumors.
Female BALB/c mice (6-8 week old) were purchased from the Jackson Laboratory (Bar Harbor, Me.). All mice were housed at the Weill Medical College of Cornell University Animal Facilities in accordance with the Principles of Animal Care (NIH publication no. 85-23, revised 1985). 4T1 tumor cells (1×10^5) were injected subcutaneously into the abdominal mammary gland area of mice in 0.1 ml of a single-cell suspension in phosphate buffered saline (PBS) on Day 0. The dosage of tumor implantation was empirically determined to give rise to tumor of ˜10 mm in diameter in untreated wild type mice in 21-23 days. On Day 7, when the tumors averaged in size ˜4-5 mm in diameter, migrastatin analogs or control PBS saline were given every day by intraperitoneal injection at 10 mg/kg or 20 mg/kg per mouse until Day 25. On Day 28, the mice were sacrificed. This regiment of migrastatin analogs was well tolerated with no signs of overt toxicity. Every group included five mice. Primary tumors were measured using electronic calipers on the day when the mice were sacrificed. Tumor size was the square root of the product of two perpendicular diameters. Numbers of metastatic 4T1 cells in lung were determined by the clonogenic assay.^63 In brief, lungs were removed from each mouse on Day 28, finely minced and digested in 5 ml of enzyme cocktail containing 1× PBS and 1 mg/ml collagenase type IV for 2 hours at 37° C. on a platform rocker. After incubation, samples were filtered through 70 uM nylon cell strainers and washed twice with PBS. Resulting cells were suspended and plated serially diluted in 10 cm tissue culture dishes in medium RPMI1640 containing 60 uM thioguanine for clonogenic growth. 6-Thioguanine-resistant tumor cells formed foci after 14 days, at which time they were fixed with methanol and stained with 0.03% methylene blue for counting.
Treatment 4T1 tumor lung metaotmis in smgencie mice with Kigrastatin analogs (See, FIG. 4). 4T1 tumor cells (10^5) were injected s.c. in the abdominal mammary gland with 0.1 ml of a single-cell suspension. Macroketone or macrolactam at 10 mg/kg or 20 mg/kg was given i.p. on Day 7 when the tumor size was about 5 mm in diameter, and everyday until Day 25. On Day 28, the mice were sacrificed. Each group comprised five mice. Lung metastasis was measured by the 6-thiogunine clonogenic assay. The mean and standard deviation are presented. In the control group (daily PBS injection), there were 61300±18900 colonies.

Data set [5] concerns HUVECs (human umbilical vein endothelial cells). Briefly: Boyden chamber cell migration assay with HUVECs. The format is cell-based. The note with it: chamber cell migration; average of three experiments; read-out: IC50 (HUVEC). The method, then:
Chamber Cell Migration Assay (Tables 4 and 6): Cell migrations were assayed with Boyden chambers [8.0 μm pore size, polyethylene terephthalate membrane, FALCON cell culture insert (Becton-Dickinson)]. 4T1 mouse breast tumor cells or HUVECs were trypsinized and counted. 300 μl of 5-10×10^4 cells in serum-free medium was added to the upper chamber and 500 μl of medium with 10% fetal bovine serum (FBS) was added to the lower chamber. The transwells were incubated for 6-8 h at 37° C. with different concentrations of chemical compound in both upper and lower chamber. Cells on the inside of the transwell inserts were removed with a cotton swab, and cells on the underside of the insert were fixed and stained. Photographs of three random regions were taken and the number of cells was counted to calculate the average number of cells that have transmigrated.

Data set [6] is described as follows: Mouse plasma stability study (HPLC). It is filed as in vitro ADME. The method, then: Mouse Plasma Stability Studies (Table 5): HPLC conditions: The sample is injected and separated using an Inertsil ODS3 6u 3×150 mm column with a mobile phase of MeCN and water (50% for migrastatin) at a flow of 0.4 mL/min, monitored at 220 nm at 0.02 AUFS (the retention time for migrastatin is ca. 4 min, the identity of this peak was confirmed by mass spectral analysis). Incubation and sample preparation conditions: A solution (ca. 30 mM) of chemical compound (Table 5) in DMSO is prepared. 2 μL of the solution is added to a mixture containing 200 μL of mouse plasma and 800 μL of PBS. The resulting solution is put into a water bath at 37° C., and 100 μL of sample is withdrawn at 10, 20, 30, 45, and 60 min. The precipitate is removed by centrifugation and 20 μL of the supernatant is injected onto the HPLC.

Read-outs that look alike come from different tables or passages of the source.

`CO[C@H]1C=CCC/C=C/C(=O)O[C@H]([C@H](C)C(=O)CCCC2CC(=O)NC(=O)C2)/C(C)=C\[C@@H](C)[C@@H]1O[Si](C)(C)C(C)(C)C`: the ring closure, yield of all isomers in data set [1] (from C=CCC/C=C/C(=O)O[C@@H](/C(C)=C\[C@@H](C)[C@H](O[Si](C)(C)C(C)(C)C)[C@H](C=C)OC)[C@H](C)C(=O)CCCC1CC(=O)NC(=O)C1, 0.46 mM) worked out at 69%.
`CO[C@H]1C=CCCCCC(=O)NC/C(C)=C\[C@@H](C)[C@@H]1O[Si](C)(C)C(C)(C)C` showed a ring closure, yield of all isomers in data set [1] (from C=CCCCCC(=O)NC/C(C)=C\[C@@H](C)[C@H](O[Si](C)(C)C(C)(C)C)[C@H](C=C)OC, 0.709 mM) of 60%.
For the compound `CO[C@H]1C=CCCCCC(=O)O[C@H]([C@H](C)C(=O)CCCC2CC(=O)NC(=O)C2)/C(C)=C\[C@@H](C)[C@@H]1O[Si](C)(C)C(C)(C)C`, in data set [1] (from C=CCCCCC(=O)O[C@@H](/C(C)=C\[C@@H](C)[C@H](O[Si](C)(C)C(C)(C)C)[C@H](C=C)OC)[C@H](C)C(=O)CCCC1CC(=O)NC(=O)C1, 0.48 mM), the ring closure, yield of all isomers came out at 79%.
With `COC1C=CCCCCC(=O)OC(C(C)C(=O)CCCC2CC(=O)NC(=O)C2)C(C)=CC(C)C1O` (centres unmarked) [2,3-dihydromigrastatin (41), 2,3-Dihydromigrastatin], the results for the Minimum effect concentration (in the data set with HUVEC; in data set [2]) were 50 µM and 25 µM, respectively. In addition, the IC50 – broadly, the point on the concentration scale where inhibition reaches its midpoint – in data set [3] was found to be 10000 nM.
In the case of `CO[C@H]1/C=C/CCCCC(=O)OC/C(C)=C\[C@@H](C)[C@@H]1OC(C)=O` [acetylated macrolactone (49), Acetylated Macrolactone], the IC50 in data set [3] worked out at 192 nM.
As for `CN1c2ccccc2C(=O)N2CCc3c([nH]c4ccccc34)[C@H]21` [evodiamine, reference compound], the IC50 in data set [3] (Mus musculus) was 315 nM.
As for `CO[C@@H](/C=C/CCCCC(=O)O)[C@@H](O)[C@H](C)/C=C(/C)CO` [hydrolyzed core (51), Hydrolyzed Core], the IC50 in data set [3] came out at 378 nM.
On to `CO[C@H]1/C=C/CCCCC(O)(C(F)(F)F)CC/C(C)=C\[C@@H](C)[C@@H]1O` (some centres unmarked) [macrocyclic CF3-alcohol (71), Macrocyclic CF3-Alcohol], for which the “effect on 4T1 tumor cell migration in the chamber assay, in words” value in data set [3] (chamber assay) is on record as “displays the same activity profile as macroketone 60”. The IC50 in data set [3] came out at 101 nM.
With `CO[C@H]1/C=C/CCCCC(O)CC/C(C)=C\[C@@H](C)[C@@H]1O` (some centres unmarked) [macrocyclic secondary alcohol (69), Macrocyclic Secondary Alcohol], the half-maximal inhibitory concentration (IC50) in data set [3] was determined as 8900 nM.
On the same count and under the same terms, to `CO[C@H]1/C=C/CCCCC(C)(O)CC/C(C)=C\[C@@H](C)[C@@H]1O` (some centres unmarked) [macrocyclic tertiary alcohol (70), Marocyclic Tertiary Alcohol] belongs 3100 nM.
`COC1C=CCCCCC(=O)NCC(C)=CC(C)C1O` (centres unmarked) [macrolactam (55), Macrolactam]: the “inhibition of lung metastasis” value in data set [4] (10 mg/kg i.p. daily Day 7-25) and in data set [4] (20 mg/kg i.p. daily Day 7-25) was ~91% throughout. Moreover, the figures for the lung metastasis colonies in data set [4] (10 mg/kg i.p. daily Day 7-25) and in data set [4] (20 mg/kg i.p. daily Day 7-25) were 5333±1778 colonies and 5675±6263 colonies, respectively. The concentration for half-maximal inhibition (IC50) turned out to be 255 nM in data set [3] and 18000 nM in data set [5].
For `CO[C@H]1/C=C/CCCCC(=NO)CC/C(C)=C\[C@@H](C)[C@@H]1O` [macrooxime (72), Macrooxime], the IC50 in data set [3] was 2300 nM.
`COC1C=CCCC=CC(=O)OCC(C)=CC(C)C1O` (centres unmarked) [migrastatin core (45), Migrastatin Core]: in data set [6] (mouse plasma/PBS, 37° C., sampled up to 60 min), the “stability (t1/2, mouse plasma)” value came out at 20 min. The “stability (mouse plasma), in words” value in data set [6] (stable = intensity of HPLC signal unchanged over 60 min of incubation) is “hydrolyzed rapidly”. Moreover, the IC50 in data set [5] was 150 nM.
For “N-Methyl-2,3-Dihydromigrastatin [N-methyl-2,3-dihydromigrastatin (42)]”, the IC50 in data set [3] came out at 7000 nM.
Take N-Methyl-migrastatin: the Minimum effect concentration in the data set with HUVEC came to 200 µM; in data set [2] it was 100 µM.
